Source: patent publication US20130005764A1, “QUININE DOSAGE FORMS AND METHODS OF USE THEREOF” (priority 2006, published 2013)
Counter-ions that a name gives are not always drawn. Like-named read-outs stand apart in the source and are kept apart here.

How the values were obtained:
[1] = Non-transformed data, least squares mean; 324 mg, fasted conditions
[2] = for AUC0-INF / AUC0-t / Cmax: 260 mg, 1 capsule (dose adjusted to 1.25 × 324 mg)
[3] = in vivo
[4] = Mean plasma quinine concentrations over 24 hours following a single oral dose of quinine sulfate (Example 1, Studies 1 and 2); type: in vivo, human; settings: Study 2 C: single oral 324 mg capsule, fasting; 0 hours
[5] = human, in vivo, po
[6] = in vivo; remark: listed apart in the source
[7] = dosing an amount between 324 mg to 658 mg, fasted
[8] = 2 × 324 mg
[9] = Ln-transformed data, geometric mean, fasted
[10] = Non-transformed data, least squares mean, fasted
[11] = Ln-transformed data, geometric mean, fasted conditions
[12] = Non-transformed data, least squares mean, fasted conditions
[13] = Non-transformed data, least squares mean, fed conditions

Compound: C=C[C@H]1C[N@@]2CC[C@H]1C[C@H]2[C@H](O)c1ccnc2ccc(OC)cc12 [Quinine Sulfate, cinchonan-9-ol, 6′-methoxy-, (8α,9R)-, sulfate (2:1)]
- kelim [1]: 0.0564
- AUC0-INF [2, 9]: 32072.92 ng·h/mL
- AUC0-t [2, 9]: 30019.28 ng·h/mL
- Cmax [2, 9]: 2251.55 ng/mL
- AUC0-INF [2, 10]: 33582.46 ng·h/mL
- AUC0-t [2, 10]: 31285.26 ng·h/mL
- Cmax [2, 10]: 2310.90 ng/mL
- Tmax ([2]; Non-transformed data, least squares mean, 324 mg, 1 capsule, fasted): 2.75
- pharmacokinetic profile proportionality to dose ([2]; dose amount between 280 mg to 324 mg): linearly proportional
- Tmax ([3]; human, 648 mg): 2.8 h
- dose proportionality (Cmax) [3]: nonlinear dose proportionality
- Mean Plasma Concentration [4]: 0; ng/ml
- mean±SD maximum QTc change from baseline around the quinine Tmax ([5]; 324 mg): 0.01 ± 0.019 s
- mean±SD maximum QTc change from baseline around the quinine Tmax ([5]; 648 mg): 0.012 ± 0.018 s
- Tmax ([6]; human, 324 mg): 2.6 h
- Cmax and AUC0-t between the fed and fasted states ([6]; po): substantially unchanged
- pharmacokinetic profile proportionality to dose [7]: not linearly proportional
- AUC0-INF [8, 11]: 50005.77 ng·h/mL
- AUC0-t [8, 11]: 47258.21 ng·h/mL
- Cmax [8, 11]: 3197.25 ng/mL
- Cmax ([8]; Ln-transformed data, geometric mean, fed conditions): 3332.41 ng/mL
- AUC0-INF [8, 12]: 52643.14 ng·h/mL
- AUC0-t [8, 12]: 49484.64 ng·h/mL
- Cmax [8, 12]: 3293.84 ng/mL
- Tmax [8, 12]: 2.68
- AUC0-INF [8, 13]: 54409.12 ng·h/mL
- AUC0-t [8, 13]: 51228.07 ng·h/mL
